Assay results taken from PubChem BioAssay (NCI).
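Five concentrations, 48 hours, 96-well plates. The concentration for 50% growth inhibition is given as GI50. At the TGI there is no net growth.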

Columns and labels:
Assay in all cases: inhibition of tumour cell growth, NCI panel, 48 h
HCT-15 colon = test system: HCT-15 colon
SK-OV-3 ovarian = test system: SK-OV-3 ovarian
SF-268 CNS = test system: SF-268 CNS
RPMI-8226 leukemia = test system: RPMI-8226 leukemia
MDA-MB-468 breast = test system: MDA-MB-468 breast
OVCAR-8 ovarian = test system: OVCAR-8 ovarian
HOP-62 NSCLC = test system: HOP-62 NSCLC
786-0 renal = test system: 786-0 renal
MDA-MB-231 breast = test system: MDA-MB-231 breast
T-47D breast = test system: T-47D breast
UACC-257 melanoma = test system: UACC-257 melanoma
K-562 leukemia = test system: K-562 leukemia
OVCAR-3 ovarian = test system: OVCAR-3 ovarian
A549 NSCLC = test system: A549 NSCLC
M14 melanoma = test system: M14 melanoma
EKVX NSCLC = test system: EKVX NSCLC
COLO 205 colon = test system: COLO 205 colon
NCI/ADR-RES ovarian = test system: NCI/ADR-RES ovarian
HOP-92 NSCLC = test system: HOP-92 NSCLC
LOX IMVI melanoma = test system: LOX IMVI melanoma
SR leukemia = test system: SR leukemia
MDA-MB-435 = test system: MDA-MB-435
SK-MEL-5 melanoma = test system: SK-MEL-5 melanoma
TK-10 renal = test system: TK-10 renal
RXF 393 renal = test system: RXF 393 renal
MCF7 breast = test system: MCF7 breast
SNB-19 CNS = test system: SNB-19 CNS
MALME-3M melanoma = test system: MALME-3M melanoma
SF-295 CNS = test system: SF-295 CNS
KM12 colon = test system: KM12 colon
SN12C renal = test system: SN12C renal
ACHN renal = test system: ACHN renal
UO-31 renal = test system: UO-31 renal
DU-145 prostate = test system: DU-145 prostate
HT29 colon = test system: HT29 colon
NCI-H23 lung = test system: NCI-H23 lung
PC-3 prostate = test system: PC-3 prostate
IGROV1 ovarian = test system: IGROV1 ovarian
HS 578T breast = test system: HS 578T breast
HCC-2998 colon = test system: HCC-2998 colon
BT-549 breast = test system: BT-549 breast
SNB-75 CNS = test system: SNB-75 CNS
UACC-62 melanoma = test system: UACC-62 melanoma
NCI-H522 lung = test system: NCI-H522 lung
SW-620 colon = test system: SW-620 colon
SF-539 CNS = test system: SF-539 CNS
HCT-116 colon = test system: HCT-116 colon
NCI-H226 lung = test system: NCI-H226 lung
OVCAR-4 ovarian = test system: OVCAR-4 ovarian
MOLT-4 leukemia = test system: MOLT-4 leukemia
HL-60(TB) leukemia = test system: HL-60(TB) leukemia
CAKI-1 renal = test system: CAKI-1 renal
NCI-H460 lung = test system: NCI-H460 lung
SK-MEL-2 melanoma = test system: SK-MEL-2 melanoma
SK-MEL-28 melanoma = test system: SK-MEL-28 melanoma
CCRF-CEM leukemia = test system: CCRF-CEM leukemia
A498 renal = test system: A498 renal
OVCAR-5 ovarian = test system: OVCAR-5 ovarian
U251 CNS = test system: U251 CNS

Cc1ccc(-c2cc(C(=O)N=Nc3c(O)[nH]c4ccc(F)cc34)c3ccccc3n2)cc1
GI50 (HCT-15 colon): 2.39 µM | TGI (HCT-15 colon): 15.3 µM | GI50 (SK-OV-3 ovarian): 18.9 µM | TGI (SK-OV-3 ovarian): 38.5 µM | GI50 (SF-268 CNS): 8.11 µM | TGI (SF-268 CNS): 49.5 µM | GI50 (RPMI-8226 leukemia): 10.6 µM | TGI (RPMI-8226 leukemia): > 100 µM | GI50 (MDA-MB-468 breast): 9.09 µM | TGI (MDA-MB-468 breast): 23.6 µM | GI50 (OVCAR-8 ovarian): 4.72 µM | TGI (OVCAR-8 ovarian): 33.2 µM | GI50 (HOP-62 NSCLC): 4.48 µM | TGI (HOP-62 NSCLC): 18.6 µM | GI50 (786-0 renal): 16.6 µM | TGI (786-0 renal): 39.1 µM | GI50 (MDA-MB-231 breast): 3.42 µM | TGI (MDA-MB-231 breast): 13.6 µM | GI50 (T-47D breast): 11 µM | TGI (T-47D breast): 54.2 µM | GI50 (UACC-257 melanoma): 16.7 µM | TGI (UACC-257 melanoma): 33.5 µM | GI50 (K-562 leukemia): 4.27 µM | TGI (K-562 leukemia): > 100 µM | GI50 (OVCAR-3 ovarian): 8.75 µM | TGI (OVCAR-3 ovarian): 30.4 µM | GI50 (A549 NSCLC): 5.21 µM | TGI (A549 NSCLC): 22.6 µM | GI50 (M14 melanoma): 11.6 µM | TGI (M14 melanoma): 28 µM | GI50 (EKVX NSCLC): 10.8 µM | TGI (EKVX NSCLC): 27.4 µM | GI50 (COLO 205 colon): 15.7 µM | TGI (COLO 205 colon): 34.5 µM | GI50 (NCI/ADR-RES ovarian): 3.53 µM | TGI (NCI/ADR-RES ovarian): 27.5 µM | GI50 (HOP-92 NSCLC): 11.5 µM | TGI (HOP-92 NSCLC): 30.8 µM | GI50 (LOX IMVI melanoma): 4.1 µM | TGI (LOX IMVI melanoma): 16.6 µM | GI50 (SR leukemia): 8.17 µM | TGI (SR leukemia): > 100 µM | GI50 (MDA-MB-435): 11.1 µM | TGI (MDA-MB-435): 27.8 µM | GI50 (SK-MEL-5 melanoma): 15.2 µM | TGI (SK-MEL-5 melanoma): 30.1 µM | GI50 (TK-10 renal): 19.6 µM | TGI (TK-10 renal): 36.1 µM | GI50 (RXF 393 renal): 7.77 µM | TGI (RXF 393 renal): 22.5 µM | GI50 (MCF7 breast): 4.6 µM | TGI (MCF7 breast): 23 µM | GI50 (SNB-19 CNS): 17.3 µM | TGI (SNB-19 CNS): 42.3 µM | GI50 (MALME-3M melanoma): 8.77 µM | TGI (MALME-3M melanoma): 21.6 µM | GI50 (SF-295 CNS): 11.4 µM | TGI (SF-295 CNS): 26.1 µM | GI50 (KM12 colon): 12.5 µM | TGI (KM12 colon): 56 µM | GI50 (SN12C renal): 3.73 µM | TGI (SN12C renal): 16.5 µM | GI50 (ACHN renal): 12.7 µM | TGI (ACHN renal): 26 µM | GI50 (UO-31 renal): 12.3 µM | TGI (UO-31 renal): 24.8 µM | GI50 (DU-145 prostate): 15.6 µM | TGI (DU-145 prostate): 52.1 µM | GI50 (HT29 colon): 5.23 µM | TGI (HT29 colon): 19.2 µM | GI50 (NCI-H23 lung): 4.2 µM | TGI (NCI-H23 lung): 18.4 µM | GI50 (PC-3 prostate): 9.49 µM | TGI (PC-3 prostate): 91 µM | GI50 (IGROV1 ovarian): 12.5 µM | TGI (IGROV1 ovarian): 28.5 µM | GI50 (HS 578T breast): 7.2 µM | TGI (HS 578T breast): 66.3 µM | GI50 (HCC-2998 colon): 15.1 µM | TGI (HCC-2998 colon): 32.7 µM | GI50 (BT-549 breast): 10.7 µM | TGI (BT-549 breast): 25.7 µM | GI50 (SNB-75 CNS): 10.5 µM | TGI (SNB-75 CNS): 33.3 µM | GI50 (UACC-62 melanoma): 9.81 µM | TGI (UACC-62 melanoma): 22.7 µM | GI50 (NCI-H522 lung): 11.8 µM | TGI (NCI-H522 lung): 27.5 µM | GI50 (SW-620 colon): 5.53 µM | TGI (SW-620 colon): 26 µM | GI50 (SF-539 CNS): 2.64 µM | TGI (SF-539 CNS): 8.66 µM | GI50 (HCT-116 colon): 3.36 µM | TGI (HCT-116 colon): 13.8 µM | GI50 (NCI-H226 lung): 17.4 µM | TGI (NCI-H226 lung): 37.2 µM | GI50 (OVCAR-4 ovarian): 5.68 µM | TGI (OVCAR-4 ovarian): 26.6 µM | GI50 (MOLT-4 leukemia): 4.29 µM | TGI (MOLT-4 leukemia): > 100 µM | GI50 (HL-60(TB) leukemia): 15.4 µM | TGI (HL-60(TB) leukemia): 54 µM | GI50 (CAKI-1 renal): 12.2 µM | TGI (CAKI-1 renal): 27.3 µM | GI50 (NCI-H460 lung): 3.96 µM | TGI (NCI-H460 lung): 19.8 µM | GI50 (SK-MEL-2 melanoma): 17 µM | TGI (SK-MEL-2 melanoma): 35 µM | GI50 (SK-MEL-28 melanoma): 10.2 µM | TGI (SK-MEL-28 melanoma): 22.3 µM | GI50 (CCRF-CEM leukemia): 2.11 µM | TGI (CCRF-CEM leukemia): > 100 µM | GI50 (A498 renal): 19 µM | TGI (A498 renal): 34.1 µM | GI50 (OVCAR-5 ovarian): 10.2 µM | TGI (OVCAR-5 ovarian): 23.9 µM | GI50 (U251 CNS): 4.09 µM | TGI (U251 CNS): 18.2 µM
